Laboratory results reported in paper PMC5955599, “The HTLV-1 gp21 fusion peptide inhibits antigen specific T-cell activation in-vitro and in mice” (PLoS Pathogens, 2018).

Columns and labels:
[1] = tested on: MOG35-55–antigen specific T-cells; experiment: mRNA expression in activated T-cells (qRT-PCR); assay type: cell-based, mouse (C57Bl/6J); conditions: 10μM; APC activation; RNA 24 hours following activation; normalized to Rpl13a; n≥3
Procedure: Fig 2 Modulation of Th1/Th2 gene expression and cytokine secretion from activated T-cells by the HTLV FP. MOG35-55–antigen specific T-cells were activated by irradiated MOG35-55 presenting APCs, in the presence of the HTLV FP at 10μM. (A) Total RNA was isolated 24 hours following activation and mRNA expression levels were determined by qRT-PCR. The values of each gene were normalized to Rpl13a as a housekeeping control. The HTLV FP reduces mRNA expression of Th1 specific genes (IFNG, LTA, and STAT4) and elevates mRNA expression of Th2 specific genes (IL4 and IL10). The data is presented as arbitrary units. n≥3. (B) Media was collected 24 hours following activation and secretion of cytokines was measured by ELISA assay. IFN-γ secretion is inhibited, IL4 secretion is elevated and TNFα is not affected by the HTLV FP. n = 12. One-way ANOVA was used for statistical analysis. *P<0.05; **P<0.01;***P<0.001.
(A-B) MOG35-55–antigen specific T-cells were activated by irradiated MOG35-55 presenting APCs, in the presence of the HTLV FP at 10μM. Total RNA was isolated 24 hours following activation and mRNA expression levels were determined by qRT-PCR. The values of each gene were normalized to Rpl13a as a housekeeping control. The HTLV FP reduces TBX21 (T-bet) mRNA expression and elevates GATA3 mRNA expression. The data is presented as arbitrary units. n≥3. (C-H) MOG35-55–antigen specific T-cells were activated by irradiated MOG35-55 presenting APCs, in the presence of either HTLV or HIV FP at 10μM. Samples were fixed in 4% PFA and stained with anti T-bet-APC and anti Gata3-FITC antibodies (C-D) 24, (E-F) 48 and (G-H) 72 hours following activation. Each time point is represented as cell count vs. APC or FITC fluorescence histogram. Analysis was performed using LSR-II flow cytometer (BD) and FlowJo cell analysis software (FlowJo, LLC). The HTLV FP reduces T-bet expression and elevates Gata3 expression. n = 3. One-way ANOVA was used for statistical analysis. ns, not significant; *P<0.05;** P<0.01.
Antigen-specific T-cells were plated onto round 12-well plates (10^6 cells/ well) and activated with 5x10^5 irradiated (25 gray) APC and 5μg/ml of MOG p35-55 in the presence or absence of relevant peptides. Total RNA from cells was isolated 24 hours following activation using the NucleoSpin RNA II kit (Macherey-Nagel, Duren, Germany). 2μg aliquot of the total RNA was reverse transcribed into cDNA using Bio-RT (Bio-Lab, Jerusalem, Israel), dNTPs and random hexamer primers. qRT-PCR was performed on Step One Plus, ABI instrument (Applied Biosystems, Grand Island, NY, USA) using SYBR Green PCR Master Mix (Quanta BioSciences, Gaithersburg, MD, USA). The values for the specific genes were normalized to Rpl13a (mouse) as housekeeping controls and the data are described in arbitrary units. PCR reactions were performed in duplicate. The specific primers used for qRT-PCR are available on request.

[2] = tested on: primary mouse bone marrow derived macrophages (BMDM); experiment: Cytokine secretion from TLR-ligand stimulated BM-derived macrophages (ELISA); assay type: cell-based, mouse (C57Bl/6J); conditions: HTLV FP at 10μM, stimulated by LTA, LPS or PAM3CSK4 (1 μg/ml), n = 3
Procedure: Mouse Femora and tibiae BM cells were isolated from C57Bl/6J mice and cultured in RPMI medium containing FBS (10%), L-glutamine (1%), sodium pyruvate (1%), Pen-strep (1%), and 10 ng/ml recombinant CSF-1 (Peprotech). At day 3, half the medium was replaced, and on day 7, cells were used for in vitro assay, in which 2*10^5 cells were plated per well in a 24-well plate.
Mouse Femora and tibiae BM cells were collected and cultured in RPMI medium containing FBS (10%), L-glutamine (1%), sodium pyruvate (1%), Pen-strep (1%), and 10 ng/ml recombinant CSF-1 (Peprotech). On day 7, cells were stimulated by either (i) LTA, (ii) LPS, or (iii) PAM3CSK4 (1 μg/ml), in the presence of the HTLV FP at 10μM. Media was collected either 5 hours following activation (for TNF-α detection) or 22 hour following activation (for IL-6 detection) and secretion levels were determined according to standard protocols from R&D systems.
Supplementary file ppat.1007044.s002.tif: S2 Fig BM-derived macrophages activation is not affected by HTLV FP treatment. […] Media was collected either 5 hours following activation (for TNF-α detection) or 22 hour following activation (for IL-6 detection) and cytokines secretion was measured by ELISA assay. […]

[3] = tested on: mouse MOG35-55–antigen specific T cells; conditions: XTT, n = 4
Procedure: Aliquots of 10^4 cells were distributed onto a 96-well plate in the presence of 1.25–40μM of the relevant peptides for 16 or 72 hours. Following incubation, XTT reaction solution (benzene sulfonic acid hydrate and N-methyl dibenzopyrazine methyl sulfate, mixed in a proportion of 50:1), was added for 2 hours. Optical density was read at 450-nm wavelength. The percentage of toxicity was calculated relative to the control, 10^4 cells in medium with no peptide added.
Viability of cells was analyzed by an XTT cytotoxicity assay. MOG35-55–antigen specific T cells were incubated with peptides at concentrations ranging from 40μM to 2.5μM in serial dilutions (from black to light gray respectively). (A) Viability was analyzed following overnight (16 hours) incubation with peptides. (B) Viability was analyzed following 72 hour incubation with the peptide. The data is presented as mean percent viability. Error bars represent ± S.E.M. n = 4. (TIF) Click here for additional data file.

AVPVAVWLVSALAMGAGVAGGITGSMSLASGKS [HTLV FP]
GATA3 mRNA expression [1]: elevated Gata3 expression | IFNG mRNA level [1]: reduced the mRNA levels | IL4 mRNA level [1]: elevated the mRNA levels | IL10 mRNA level [1]: elevated the mRNA levels | LTA mRNA level [1]: reduced the mRNA levels | STAT4 mRNA level [1]: reduced the mRNA levels | TBX21 (T-bet) mRNA expression [1]: reduced TBX21 (T-bet) expression | TNFα secretion from BMDM ([2]; media 5 hours following activation): had no effect on cytokine secretion | IL6 secretion from BMDM ([2]; media 22 hour following activation): had no effect on cytokine secretion | toxicity to mouse T-cells, 72 hours ([3]; peptide 40μM to 2.5μM, 72 hour incubation): not toxic up to 4-fold higher than the concentrations used in this study | toxicity to mouse T-cells, 16 hours ([3]; peptides 40μM to 2.5μM, overnight (16 hours) incubation): not toxic up to 4-fold higher than the concentrations used in this study
